Data on 53 compounds can be found in patent US20040253665A1, “Novel peptide-producing enzyme, microbe producing the enzyme and method for dipeptide synthesis using them” (AJINOMOTO CO., INC., priority 2002, published 2004).

Marks after values point to notes of the source that are not given here. Non-standard residues stand in square brackets, D forms with d. Residues, ends and D or L forms follow the SMILES beside them. No end group written: not given here. *: point of attachment. Tle = CC(C)(C)[C@H](N)C(=O)O; NMeA = CN[C@@H](C)C(=O)O; Boc = CC(C)(C)OC(=O)*; Aib = CC(C)(N)C(=O)O; OtBu = CC(C)(C)O*; tBu = CC(C)(C)*

For one experiment, the system named is peptide-producing enzyme (Mono S fraction) from Empedobacter brevis strain FERM BP-8113. In words: Enzyme substrate specificity (1)-(10), (13), (14). In kind it is biochemical. As to conditions: L or D amino acid methyl ester hydrochloride 100 mM, L or D amino acid 150 mM, pH 9.0, 25° C., 3 hours. An excerpt:
Ester specificity was examined in the case of using L-amino acid ester for the carboxy component. […] The amounts of L-Ala-L-Gln produced in this reaction are shown in Table 4 (HCl represents hydrochloride in Table 4). Peptide production was examined in the case of using L-alanine methyl ester for the carboxy component and using various L-amino acids for the amine component. […] (The “+” mark indicates those peptides for which production was confirmed but which were unable to be quantified due to the absence of a standard, while “tr” indicates a trace amount.) Peptide production was examined in the case of using various types of L-amino acid methyl esters for the carboxy component and using L-glutamine for the amine component. […] Peptide production was examined in the case of using various L-amino acid methyl esters for the carboxy component and various L-amino acids for the amine component. […] (The “tr” indicates a trace amount.) Furthermore, Tween-80 was added to the reaction system to a final concentration of 0.1% in the case of using L-Trp-OMe. (The “+” mark indicates those peptides for which production was confirmed but which were unable to be quantified due to the absence of a standard.) […] (The “tr” indicates a trace amount.) Peptide production was examined using various L-amino acid amides for the carboxy component, and various L-amino acids for the amine component. […] Peptide production was examined in the case of using various L-alanine methyl esters for the carboxy component and C-protected L-amino acids for the amine component. […] Peptide production was examined in the case of using various amino acid methyl esters for the carboxy component and methylamine for the amine component. […] Peptide production was examined in the case of using β-amino acid ester for the carboxy component or β-amino acid for the amine component. […] (The “tr” indicates a trace amount.) Oligopeptide production was examined in the case of using L-amino acid ester for the carboxy component and peptide for the amine component. […] Substrate specificity was additionally assessed using the same enzyme fraction as that used in Example 5. […] (A “+” mark indicates those for which production was confirmed but which were unable to be quantified due to the absence of a standard, while “tr” indicates a trace amount). Substrate specificity with respect to oligopeptide production was assessed using the same enzyme fraction as Example 26. […] (A “+” mark indicates those for which production was confirmed but which were unable to be quantified due to the absence of a standard, while “tr” indicates a trace amount). It should be noted that hydrochlorides were used for all of the carboxy components.
Turning to `CSCC[C@@H](N)C(=O)N[C@@H](CO)C(=O)O` [D-Met-L-Ser] (H-[dM]-Ser-OH), the “Produced peptide” value is listed as 5.1 mM.
Same read-out and setting: the value for `CSCC[C@@H](N)C(=O)N[C@H](CO)C(=O)O` [D-Met-D-Ser] (H-[dM]-[dS]-OH) was 2.7 mM; that for `CC(C)[C@@H](N)C(=O)N[C@@H](CO)C(=O)O` [D-Val-L-Ser] (H-[dV]-Ser-OH) was 0.6 mM.
On the same count and under the same terms, the value for `C[C@H](N)C(=O)N[C@H](CCC(N)=O)C(=O)O` [L-Ala-D-Gln] (H-Ala-[dQ]-OH) was 0.3 mM; that for `CC(C)[C@H](N)C(=O)N[C@H](CO)C(=O)O` [L-Val-D-Ser] (H-Val-[dS]-OH) was 1.4 mM; that for `N[C@H](CO)C(=O)N[C@@H](CO)C(=O)O` [D-Ser-L-Ser] (H-[dS]-Ser-OH) was 3.3 mM.
Regarding `C[C@@H](N)C(=O)N[C@@H](CCC(N)=O)C(=O)O` [D-Ala-L-Gln] (H-[dA]-Gln-OH), the “Produced peptide” value was 69.3 mM.
Still for that read-out and setting: to `N[C@H](CO)C(=O)N[C@H](CO)C(=O)O` [D-Ser-D-Ser] (H-[dS]-[dS]-OH) belongs 2.5 mM; to `CC(C)[C@@H](N)C(=O)N[C@H](CO)C(=O)O` [D-Val-D-Ser] (H-[dV]-[dS]-OH), 0.5 mM.
The same measure, in the same setting: to `C[C@@H](O)[C@H](N)C(=O)N[C@H](CO)C(=O)O` [L-Thr-D-Ser] (H-Thr-[dS]-OH) belongs 6.9 mM; to `CSCC[C@H](N)C(=O)N[C@H](CO)C(=O)O` [L-Met-D-Ser] (H-Met-[dS]-OH), 1.9 mM; to `C[C@H](O)[C@@H](N)C(=O)N[C@@H](CO)C(=O)O` [D-Thr-L-Ser] (H-[dT]-Ser-OH), 1.0 mM.
Still for that read-out and setting: to `N[C@@H](CO)C(=O)N[C@H](CO)C(=O)O` [L-Ser-D-Ser] (H-Ser-[dS]-OH) belongs 16.2 mM; to `C[C@H](O)[C@@H](N)C(=O)N[C@H](CO)C(=O)O` [D-Thr-D-Ser] (H-[dT]-[dS]-OH), 1.1 mM.

Staying with this experiment, now noted: L-amino acid amide hydrochloride 100 mM as carboxy component, L-amino acid 150 mM, pH 9.0, 25° C., 3 hours.
Regarding `N[C@@H](Cc1ccccc1)C(=O)N[C@@H](CO)C(=O)O` [L-Phe-L-Ser] (H-Phe-Ser-OH), the “Produced peptide” value is given as 0.6 mM.

The same experiment, now with this note: L-amino acid ester 100 mM, amino acid or peptide amine component 150 mM, pH 9.0, 25° C., 3 hours.
Take Gly-Gly-L-Tyr-L-Ala: the “Produced peptide” value was 44.2 mM.
Same read-out and setting: to Gly-Gly-L-Gln belongs 7.2 mM.

The same experiment, now with this note: L-amino acid methyl ester hydrochloride 100 mM, L-amino acid 150 mM, pH 9.0, 25° C., 3 hours.
As to `CSCC[C@H](NC(=O)[C@@H](N)Cc1c[nH]c2ccccc12)C(=O)O` [L-Trp-L-Met] (H-Trp-Met-OH), the “Produced peptide” value turned out to be 4.1 mM.
Regarding `NCC(=O)N[C@@H](CS)C(=O)O` [Gly-L-CySH] (H-Gly-Cys-OH), the “Produced peptide” value is 45.6 mM.
In the case of `CSCC[C@H](NC(=O)[C@@H](N)Cc1cnc[nH]1)C(=O)O` [L-His-L-Met] (H-His-Met-OH), the “Produced peptide” value is recorded as 6.5 mM.
As for `C[C@@H](O)[C@H](N)C(=O)N[C@@H](CO)C(=O)O` [L-Thr-L-Ser] (H-Thr-Ser-OH), the “Produced peptide” value turned out to be 58.2 mM.
For the compound `NC(=O)C[C@H](N)C(=O)N[C@@H](CCC(=O)O)C(=O)O` [LAsn-L-Glu] (H-Asn-Glu-OH), the “Produced peptide” value was 10.2 mM.
Same read-out and setting: the value for `CSCC[C@H](NC(=O)[C@@H](N)CCCCN)C(=O)O` [L-Lys-L-Met] was 6.8 mM.
With `CSCC[C@H](NC(=O)[C@@H](N)CC(C)C)C(=O)O` [L-Leu-L-Met] (H-Leu-Met-OH), the “Produced peptide” value came out at 12.2 mM.

The experiment is the same for the next values; noted with them: carboxy component 10 mM, amine component 15 mM, pH 9.0, 25° C., 3 hours.
As to L-Ala-L-Ala-L-Ala-L-Ala-L-Ala-L-Ala, the “Produced peptide (mM)” value is 1.4* mM.

The experiment is the same for the next values; noted with them: carboxy component 40 mM, amine component 40 mM, 0.1 unit enzyme, 25° C., reaction time 3 hr.
`C[C@H](N)C(=O)N[C@@H](Cc1ccc([N+](=O)[O-])cc1)C(=O)O` [H-Ala-p-NO2-Phe-OH]: the “Produced peptide” value is 27.5 mM.
For `C[C@H](N)C(=O)N[C@@H](Cc1ccc(Cl)cc1)C(=O)O` [H-Ala-Cl-F-Phe-OH], the “Produced peptide” value is reported as 20.8 mM.
Consider `NC(=O)CC[C@H](NC(=O)[C@@H](N)Cc1ccc([N+](=O)[O-])cc1)C(=O)O` [H-p-NO2-Phe-H-Gln-OH], for which the “Produced peptide” value was 1.1 mM.

Staying with this experiment, now noted: carboxy component 50 mM, amine component 50 mM, 0.1 unit enzyme, 25° C., reaction time 3 hr.
Turning to `C[C@H](N)C(=O)N[C@@H](Cc1ccc(F)cc1)C(=O)O` [H-Ala-p-F-Phe-OH], the “Produced peptide” value was found to be 21.9 mM.

The same experiment, now with this note: carboxy component 100 mM, amine component 150 mM, 0.1 unit enzyme, 25° C., reaction time 2 hr.
For the compound `C[C@H](N)C(=O)N[C@@H](CC(=O)OC(C)(C)C)C(=O)O` [H-Ala-Asp(OtBu)-OH] (H-Ala-Asp(OtBu)-OH), the “Produced peptide” value is given as 62.6 mM.
Same read-out and setting: to `C[C@H](N)C(=O)N[C@@H](CCCCNC(=O)OC(C)(C)C)C(=O)O` [H-Ala-Lys(Boc)-OH] (H-Ala-Lys(Boc)-OH) belongs 51.0 mM; to `CC(C)(C)OC(=O)C[C@H](N)C(=O)N[C@@H](CCC(N)=O)C(=O)O` [H-Asp (OtBu)-Gln-OH] (H-Asp(OtBu)-Gln-OH), 0.9 mM.
Same read-out and setting: to `C[C@H](N)C(=O)N[C@@H](COC(C)(C)C)C(=O)O` [H-Ala-Ser(tBu)-OH] (H-Ala-Ser(tBu)-OH) belongs 48.8 mM.

Still in this experiment, the particulars now being: carboxy component 100 mM, amine component 150 mM, 0.1 unit enzyme, 25° C., reaction time 3 hr.
On to `CN[C@@H](C)C(=O)N[C@@H](CCC(N)=O)C(=O)O` [H-N-Me-Ala-H-Gln-OH] (H-[NMeA]-Gln-OH), for which the “Produced peptide” value was 0.5 mM.
In the case of `CC(C)(N)C(=O)N[C@@H](Cc1ccccc1)C(=O)O` [H-Aib-Phe-OH] (H-[Aib]-Phe-OH), the “Produced peptide” value amounted to 17.2 mM.
Still for that read-out and setting: the value for `C[C@H](N)C(=O)N[C@H](C(=O)O)C(C)(C)C` [H-Ala-t-Leu-OH] (H-Ala-[Tle]-OH) was 0.4 mM.
`CC(C)(N)C(=O)N[C@@H](CCC(N)=O)C(=O)O` [H-Aib-H-Gln-OH] (H-[Aib]-Gln-OH): the “Produced peptide” value is 18.8 mM.

Still in this experiment, the particulars now being: carboxy component (label) 100 mM, 200 mM L-glutamine, pH 9.0, 25° C., 2 hours.
`COC(=O)[C@H](C)N.Cl` [L-Alanine methyl ester.HCl, L-alanine methyl ester hydrochloride]: the “L-Ala-L-Gln produced” value is reported as 84.3 mM.
Take `CC(C)OC(=O)[C@H](C)N.Cl` [L-Alanine isopropyl ester.HCl]: the “L-Ala-L-Gln produced” value came to 78.9 mM.
Same read-out and setting: the value for `C[C@H](N)C(=O)OC(C)(C)C.Cl` [L-Alanine-t-butyl ester.HCl] was 7.5 mM.
Same read-out and setting: to `CCOC(=O)[C@H](C)N.Cl` [L-Alanine ethyl ester.HCl] belongs 91.5 mM.

The same experiment, now with this note: oligopeptide production, amount of enzyme 0.1 units, pH 9.0, 25° C., 3 hours.
As for [dA]-Gly-Phe, the “Produced peptide (mM)” value is “Tr”.

Still in this experiment, the particulars now being: oligopeptide production, amount of enzyme 1.0 units, pH 9.0, 25° C., 3 hours.
As to Gly-Phe-Met, the “Produced peptide” value is listed as 13.3 mM.
The same measure, in the same setting: to L-Tyr-Gly-Gly-L-Phe-L-Met belongs 2.7 mM.

The experiment is the same for the next values; noted with them: β-amino acid ester as carboxy component or β-amino acid as amine component; 100 mM / 150 mM, pH 9.0, 25° C., 3 hours.
With `NCCC(=O)NC(CO)C(=O)O` [β-Ala-L-Ser], the “Produced peptide” value came out at 3.2 mM.
On the same count and under the same terms, to `NCCC(=O)N[C@@H](CCC(N)=O)C(=O)O` [β-Ala-L-Gln] belongs 0.6 mM; to `NCCC(=O)NCCC(=O)O` [β-Ala-β-Ala], 0.2 mM.
Take `CC(N)C(=O)NCCC(=O)O` (stereo not drawn) [Ala-β-Ala]: the “Produced peptide” value was determined as 7.7 mM.
For the compound `CC(N)C(=O)NC(CC(=O)O)c1ccccc1` (stereo not drawn) [Ala-β-Phe], the “Produced peptide” value was determined as 1.4 mM.
Same read-out and setting: to `NCC(=O)NC(CC(=O)O)c1ccccc1` (stereo not drawn) [Gly-β-Phe] belongs 0.4 mM.
On to `NCC(=O)NCCC(=O)O` [Gly-β-Ala], for which the “Produced peptide” value came to 2.2 mM.
The same measure, in the same setting: the value for `C[C@@H](O)[C@H](N)C(=O)NC(CC(=O)O)c1ccccc1` (stereo partly drawn) [Thr-β-Phe] was 1.4 mM; that for `C[C@@H](O)[C@H](N)C(=O)NCCC(=O)O` [Thr-β-Ala] was 3.2 mM.
